Several values for one entry are separate records, joined by “and”; a condition that tells them apart may be missing. Equal values may be shown once.
Conditions: Liquid; for Critical pressure: Direct measurement; for Critical temperature: Visual observation in an unstirred cell

CC(F)(F)Cl [1-chloro-1,1-difluoroethane]
Conditions | Critical density [kg/m3] | Critical pressure [kPa] | Critical temperature [K]
– | 442 | 4054 | 410.3

FC(C(F)(F)F)C(F)(F)OCC(F)(F)F (stereo not drawn) [1,1,1,2,3,3-hexafluoro-3-(2,2,2-trifluoroethoxy)propane]
Conditions | Critical density [kg/m3] | Critical pressure [kPa] | Critical temperature [K] | vapor or sublimation pressure [kPa]
– | 563 | 2233 | 475.74 | –
302.76 K | – | – | – | 18.7
312.63 K | – | – | – | 29.6
322.65 K | – | – | – | 44.6
332.64 K | – | – | – | 65.7
342.72 K | – | – | – | 93.9
352.73 K | – | – | – | 131
362.77 K | – | – | – | 179.1
372.79 K | – | – | – | 239.7
382.83 K | – | – | – | 315.9
392.84 K | – | – | – | 408
402.89 K | – | – | – | 521.2
412.92 K | – | – | – | 657.3
422.94 K | – | – | – | 814.3
432.97 K | – | – | – | 1004.4
443 K | – | – | – | 1225.6
453.02 K | – | – | – | 1480.3
463.04 K | – | – | – | 1778.5
473.06 K | – | – | – | 2125
475.79 K | – | – | – | 2236.1

FC(F)COC(F)(F)C(F)F [1,1,2,2-tetrafluoro-2-(2,2-difluoroethoxy)ethane]
Conditions | Critical density [kg/m3] | Critical pressure [kPa] | Critical temperature [K] | vapor or sublimation pressure [kPa]
– | 520 | 3090 | 501.08 | –
300.91 K | – | – | – | 12.8
322.65 K | – | – | – | 33.9
332.67 K | – | – | – | 50.8
342.69 K | – | – | – | 75
352.73 K | – | – | – | 106.1
362.73 K | – | – | – | 147.5
372.78 K | – | – | – | 202.5
382.8 K | – | – | – | 268.1
392.83 K | – | – | – | 351.4
402.87 K | – | – | – | 453.5
412.89 K | – | – | – | 576.7
422.92 K | – | – | – | 723.9
432.95 K | – | – | – | 898.2
442.97 K | – | – | – | 1102.4
453 K | – | – | – | 1341.6
463.02 K | – | – | – | 1615.4
473.05 K | – | – | – | 1931
482.09 K | – | – | – | 2256.7
491.9 K | – | – | – | 2658.1
497.81 K | – | – | – | 2932.7
501.3 K | – | – | – | 3101.6

COCC(F)(F)C(F)(F)C(F)(F)F [1,1,1,2,2,3,3-heptafluoro-4-methoxybutane]
Conditions | Critical density [kg/m3] | Critical pressure [kPa] | Critical temperature [K] | vapor or sublimation pressure [kPa]
– | 497 | 2381 | 481.54 | –
291.65 K | – | – | – | 12.1
302.31 K | – | – | – | 20.4
312.43 K | – | – | – | 32.3
322.64 K | – | – | – | 48.9
332.66 K | – | – | – | 71.5
337.71 K | – | – | – | 85.4
342.7 K | – | – | – | 101.2
347.73 K | – | – | – | 119.2
362.74 K | – | – | – | 189.2
372.75 K | – | – | – | 250.2
382.82 K | – | – | – | 326.6
392.85 K | – | – | – | 419.6
402.88 K | – | – | – | 531.3
412.9 K | – | – | – | 664.3
422.92 K | – | – | – | 820.3
432.95 K | – | – | – | 1004.6
442.98 K | – | – | – | 1216.4
453 K | – | – | – | 1462.9
463.01 K | – | – | – | 1746.1
473.05 K | – | – | – | 2071.1
478.44 K | – | – | – | 2266.3
481.5 K | – | – | – | 2382.5
481.66 K | – | – | – | 2389.1

FCC(F)(F)F [1,1,1,2-tetrafluoroethane]
Conditions | Critical density [kg/m3] | Critical pressure [kPa] | Critical temperature [K]
– | 508 | 4051 | 374.13

COCC(F)(F)C(F)F [1,1,2,2-tetrafluoro-3-methoxypropane]
Conditions | Critical density [kg/m3] | Critical pressure [kPa] | Critical temperature [K] | vapor or sublimation pressure [kPa]
– | 453 | 3279 | 505.35 | –
342.68 K | – | – | – | 84.8
347.65 K | – | – | – | 101.2
352.72 K | – | – | – | 120.5
362.75 K | – | – | – | 166.1
372.76 K | – | – | – | 222.7
382.79 K | – | – | – | 293.4
392.8 K | – | – | – | 379.9
402.8 K | – | – | – | 484.3
412.88 K | – | – | – | 610.7
422.91 K | – | – | – | 758.8
432.93 K | – | – | – | 934.8
442.97 K | – | – | – | 1138.1
452.99 K | – | – | – | 1373.5
463.01 K | – | – | – | 1642.8
473.02 K | – | – | – | 1952
480.13 K | – | – | – | 2197.3
489.95 K | – | – | – | 2573.3
499.77 K | – | – | – | 3005.9
505.06 K | – | – | – | 3262.8
505.35 K | – | – | – | 3278.9

FC(F)OCC(F)(F)C(F)(F)F [difluoromethyl 2,2,3,3,3-pentafluoropropyl ether]
Conditions | Critical density [kg/m3] | Critical pressure [kPa] | Critical temperature [K] | vapor or sublimation pressure [kPa]
– | 576 | 2773 | 455.1 | –
298.42 K | – | – | – | 44.2
322.49 K | – | – | – | 111.5
332.63 K | – | – | – | 157.2
342.7 K | – | – | – | 216.6
352.65 K | – | – | – | 290.7
362.73 K | – | – | – | 384.1
372.78 K | – | – | – | 498.1
382.79 K | – | – | – | 637.5
392.82 K | – | – | – | 807.7
402.86 K | – | – | – | 1006.3
412.9 K | – | – | – | 1244.5
422.93 K | – | – | – | 1524.9
432.96 K | – | – | – | 1858.4
442.98 K | – | – | – | 2203.3
454.99 K | – | – | – | 2769
455.27 K | – | – | – | 2796.4

FC(F)C(F)(F)COC(F)(F)C(F)F [1,1,2,2-tetrafluoro-3-(1,1,2,2-tetrafluoroethoxy)propane]
Conditions | Critical density [kg/m3] | Critical pressure [kPa] | Critical temperature [K] | vapor or sublimation pressure [kPa]
– | 530 | 2581 | 510.07 | –
322.65 K | – | – | – | 20.9
332.65 K | – | – | – | 31.6
342.71 K | – | – | – | 46.8
352.73 K | – | – | – | 67.9
362.77 K | – | – | – | 95.4
372.77 K | – | – | – | 131.3
382.81 K | – | – | – | 177.3
402.88 K | – | – | – | 308.1
412.91 K | – | – | – | 395.4
422.94 K | – | – | – | 500.2
432.96 K | – | – | – | 628.3
442.99 K | – | – | – | 773.9
453.01 K | – | – | – | 946.9
463.24 K | – | – | – | 1151.4
473.06 K | – | – | – | 1378.5
481.12 K | – | – | – | 1591
491.9 K | – | – | – | 1907.6
501.73 K | – | – | – | 2245.2
509.65 K | – | – | – | 2552.5

FC(F)(F)COCC(F)(F)F [1,1,1-trifluoro-2-(2,2,2-trifluoroethoxy)ethane]
Conditions | Critical density [kg/m3] | Critical pressure [kPa] | Critical temperature [K] | vapor or sublimation pressure
– | 500 | 2783 | 476.31 | –
293.4 K | – | – | – | 18 kPa
293.59 K | – | – | – | 18.2 kPa
303.09 K | – | – | – | 27.9 kPa
303.12 K | – | – | – | 28 kPa
313.12 K | – | – | – | 42.6 kPa
313.14 K | – | – | – | 42.8 kPa
323.15 K | – | – | – | 63.3 kPa
323.17 K | – | – | – | 63.4 kPa
333.2 K | – | – | – | 91.3 kPa and 91.4 kPa
338.22 K | – | – | – | 109 kPa
343.24 K | – | – | – | 129.2 kPa
353.27 K | – | – | – | 178.3 kPa
353.28 K | – | – | – | 178.3 kPa
363.31 K | – | – | – | 241.1 kPa
373.34 K | – | – | – | 320 kPa
373.35 K | – | – | – | 320.1 kPa
383.38 K | – | – | – | 417.4 kPa and 417.3 kPa
393.43 K | – | – | – | 536.2 kPa and 536.3 kPa

Reference: the NIST ThermoML archive (doi:10.1021/je0201976)
